Test results taken from ChEMBL document CHEMBL1201862, “PubChem BioAssay data set” (2004).
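Interpolation was linear, between the two tested concentrations surrounding the appropriate level; five concentrations were tested over 48 hours in 96-well plates. GI50 = concentration required for 50% inhibition of growth.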 Active and inactive are the calls of the source. Cut-off read from the data, not from the text of the source: active = GI50 up to about 1.1 µM and inactive = higher.

What was measured:
Assay in all cases: NCI anticancer screen, dose series, 48 h
786-0 = system: 786-0
A498 = system: A498
A549 = system: A549
ACHN = system: ACHN
BT-549 = system: BT-549
CAKI-1 = system: CAKI-1
CCRF-CEM = system: CCRF-CEM
COLO 205 = system: COLO 205
DU-145 = system: DU-145
HCC 2998 = system: HCC 2998
HCT-116 = system: HCT-116
HCT-15 = system: HCT-15
HL-60 = system: HL-60
HOP-62 = system: HOP-62
HOP-92 = system: HOP-92
HT-29 = system: HT-29
Hs-578T = system: Hs-578T
IGROV-1 = system: IGROV-1
K562 = system: K562
KM12 = system: KM12
LOX IMVI = system: LOX IMVI
M14 = system: M14
MCF7 = system: MCF7
MDA-MB-231 = system: MDA-MB-231
MDA-MB-435 = system: MDA-MB-435
MDA-N = system: MDA-N
MOLT-4 = system: MOLT-4
Malme-3M = system: Malme-3M
NCI-H23 = system: NCI-H23
NCI-H460 = system: NCI-H460
NCI/ADR-RES = system: NCI/ADR-RES
OVCAR-3 = system: OVCAR-3
OVCAR-4 = system: OVCAR-4
OVCAR-5 = system: OVCAR-5
PC-3 = system: PC-3
RPMI-8226 = system: RPMI-8226
RXF 393 = system: RXF 393
SF-268 = system: SF-268
SF-295 = system: SF-295
SF-539 = system: SF-539
SK-MEL-28 = system: SK-MEL-28
SK-MEL-2 = system: SK-MEL-2
SK-MEL-5 = system: SK-MEL-5
SK-OV-3 = system: SK-OV-3
SN12C = system: SN12C
SNB-19 = system: SNB-19
SNB-75 = system: SNB-75
SR = system: SR
SW-620 = system: SW-620
T47D = system: T47D
TK-10 = system: TK-10
U-251 = system: U-251
UACC-257 = system: UACC-257
UACC-62 = system: UACC-62
UO-31 = system: UO-31
EKVX = system: EKVX
NCI-H226 = system: NCI-H226
NCI-H522 = system: NCI-H522
OVCAR-8 = system: OVCAR-8

With `[N-]=[N+]=Nc1nc2ccccc2c(N=[N+]=[N-])c1Cl` the GI50 (786-0) was 56.2 µM (inactive), the GI50 (A498) was 6.81 µM (inactive) and the GI50 (A549) was > 100 µM (inactive). For the same molecule, the GI50 (ACHN) was > 100 µM (inactive), the GI50 (BT-549) was 28.6 µM (inactive) and the GI50 (CAKI-1) was > 100 µM (inactive). The GI50 (CCRF-CEM) was > 100 µM (inactive), the GI50 (COLO 205) was > 100 µM (inactive) and the GI50 (DU-145) was > 100 µM (inactive). The GI50 (HCC 2998) was > 100 µM (inactive), the GI50 (HCT-116) was > 100 µM (inactive) and the GI50 (HCT-15) was > 100 µM. For the same molecule, the GI50 (HL-60) was > 100 µM (inactive), the GI50 (HOP-62) was 79.1 µM (inactive) and the GI50 (HOP-92) was 30.3 µM (inactive). The GI50 (HT-29) was > 100 µM (inactive), the GI50 (Hs-578T) was 31.6 µM (inactive) and the GI50 (IGROV-1) was > 100 µM (inactive). For the same molecule, the GI50 (K562) was > 100 µM (inactive), the GI50 (KM12) was > 100 µM (inactive) and the GI50 (LOX IMVI) was > 100 µM (inactive). For the same molecule, the GI50 (M14) was > 100 µM (inactive), the GI50 (MCF7) was > 100 µM (inactive) and the GI50 (MDA-MB-231) was > 100 µM (inactive). The GI50 (MDA-MB-435) was > 100 µM (inactive), the GI50 (MDA-N) was > 100 µM (inactive) and the GI50 (MOLT-4) was > 100 µM (inactive). For the same molecule, the GI50 (Malme-3M) was > 100 µM (inactive), the GI50 (NCI-H23) was > 100 µM (inactive) and the GI50 (NCI-H460) was > 100 µM (inactive). For the same molecule, the GI50 (NCI/ADR-RES) was > 100 µM (inactive), the GI50 (OVCAR-3) was > 100 µM (inactive) and the GI50 (OVCAR-4) was 68.9 µM (inactive). The GI50 (OVCAR-5) was > 100 µM (inactive), the GI50 (PC-3) was > 100 µM (inactive) and the GI50 (RPMI-8226) was > 100 µM (inactive). For the same molecule, the GI50 (RXF 393) was 25.6 µM (inactive), the GI50 (SF-268) was > 100 µM (inactive) and the GI50 (SF-295) was > 100 µM (inactive). For the same molecule, the GI50 (SF-539) was 96.8 µM (inactive), the GI50 (SK-MEL-28) was > 100 µM (inactive) and the GI50 (SK-MEL-2) was > 100 µM (inactive). For the same molecule, the GI50 (SK-MEL-5) was > 100 µM (inactive), the GI50 (SK-OV-3) was 92 µM (inactive) and the GI50 (SN12C) was > 100 µM (inactive). For the same molecule, the GI50 (SNB-19) was > 100 µM (inactive), the GI50 (SNB-75) was 24.9 µM (inactive) and the GI50 (SR) was > 100 µM (inactive). The GI50 (SW-620) was > 100 µM (inactive), the GI50 (T47D) was > 100 µM (inactive) and the GI50 (TK-10) was > 100 µM (inactive). For the same molecule, the GI50 (U-251) was > 100 µM (inactive), the GI50 (UACC-257) was > 100 µM (inactive) and the GI50 (UACC-62) was 98.4 µM (inactive). For the same molecule, the GI50 (UO-31) was > 100 µM (inactive).
`CC(=O)CC12NC(=O)N(C)N=C1N(C)C(=O)N(C)C2=O` (configuration not stated) was tested, and the GI50 (786-0) was 91 µM (inactive), the GI50 (A498) was 31.9 µM (inactive) and the GI50 (A549) was > 100 µM (inactive). The GI50 (ACHN) was 74.6 µM (inactive), the GI50 (BT-549) was > 100 µM (inactive) and the GI50 (CAKI-1) was > 100 µM (inactive). For the same molecule, the GI50 (CCRF-CEM) was 39.2 µM (inactive), the GI50 (COLO 205) was 52.4 µM (inactive) and the GI50 (DU-145) was > 100 µM (inactive). For the same molecule, the GI50 (EKVX) was > 100 µM (inactive), the GI50 (HCC 2998) was 82.8 µM (inactive) and the GI50 (HCT-116) was 35.7 µM (inactive). For the same molecule, the GI50 (HCT-15) was 57.7 µM, the GI50 (HL-60) was 25.9 µM (inactive) and the GI50 (HOP-62) was 51.6 µM (inactive). For the same molecule, the GI50 (HOP-92) was 95.1 µM (inactive), the GI50 (HT-29) was 35.9 µM (inactive) and the GI50 (Hs-578T) was > 100 µM (inactive). For the same molecule, the GI50 (IGROV-1) was > 100 µM (inactive), the GI50 (K562) was 40.1 µM (inactive) and the GI50 (KM12) was 52.8 µM (inactive). The GI50 (LOX IMVI) was 19.8 µM (inactive), the GI50 (M14) was 73.5 µM (inactive) and the GI50 (MCF7) was 41.8 µM (inactive). The GI50 (MDA-MB-231) was 43 µM (inactive), the GI50 (MDA-MB-435) was 17 µM (inactive) and the GI50 (MDA-N) was 22.3 µM (inactive). The GI50 (MOLT-4) was 44.8 µM (inactive), the GI50 (Malme-3M) was 13.4 µM (inactive) and the GI50 (NCI-H226) was > 100 µM (inactive). The GI50 (NCI-H23) was 38.7 µM (inactive), the GI50 (NCI-H460) was 65.9 µM (inactive) and the GI50 (NCI-H522) was 37.7 µM (inactive). The GI50 (NCI/ADR-RES) was 29.4 µM (inactive), the GI50 (OVCAR-3) was 34.8 µM (inactive) and the GI50 (OVCAR-4) was 71.8 µM (inactive). The GI50 (OVCAR-5) was > 100 µM (inactive), the GI50 (OVCAR-8) was 32.1 µM (inactive) and the GI50 (PC-3) was 30.8 µM (inactive). For the same molecule, the GI50 (RPMI-8226) was 58.1 µM (inactive), the GI50 (RXF 393) was 68.1 µM (inactive) and the GI50 (SF-268) was 78.2 µM (inactive). For the same molecule, the GI50 (SF-295) was 27.4 µM (inactive), the GI50 (SF-539) was 25.7 µM (inactive) and the GI50 (SK-MEL-28) was 57.3 µM (inactive). The GI50 (SK-OV-3) was > 100 µM (inactive), the GI50 (SN12C) was 33.1 µM (inactive) and the GI50 (SNB-19) was > 10 µM (inactive). For the same molecule, the GI50 (SNB-75) was 68.1 µM (inactive), the GI50 (SR) was 63.7 µM (inactive) and the GI50 (SW-620) was 33.9 µM (inactive). The GI50 (T47D) was 30.8 µM (inactive), the GI50 (TK-10) was > 100 µM (inactive) and the GI50 (U-251) was 34.4 µM (inactive). For the same molecule, the GI50 (UACC-257) was 18.6 µM (inactive), the GI50 (UACC-62) was 23.9 µM (inactive) and the GI50 (UO-31) was > 100 µM (inactive).
